Measurements published in patent US20230024584A1, “ANTI-CANCER COMPOSITIONS AND METHODS” (University of Kentucky Research Foundation, priority 2019, published 2023).

Key:
Format in all cases: cell-based
[1] = system: SUM159, LM2, MCF-7, MB-MDA-453, 4T1 and 4T1luc cells; assay: MTT assay, breast cancer cell lines; conditions: 1.25, 2.5 and 5 μM; 24, 48, 72 h
Protocol: With reference to FIGS. 21A-21F, MTT assays were performed to determine the effect of lomitapide treatment on various breast cancer cell lines. Initially, 2500 SUM159 or LM2 cells, 5000 MCF-7 or MB-MDA-453 cells, 1000 4T1 or 4T1^1uc cells were seeded into 96-well plates. After overnight culture, vehicle (DMSO) or lomitapide (final concentration: 1.25, 2.5 and 5 μM) were added into the corresponding wells. After 24 h, 48 h, and 72 h incubation, the culture media were aspirated off and 50 μl of 0.5 mg/mL of MTT containing medium was added into each well. After 3 h incubation, 200 μl of DMSO were added into each well. The OD value of each well was read under the wavelength of 570 nm. The results are presented as mean±standard deviation (n=6) * p<0.05, compared to vehicle control (negative control) treatment group.

[2] = system: SUM159, MCF-7 and MDA-MB-453 cells; assay: Soft agar colony formation assay, breast cancer cell lines; conditions: 1.25, 2.5 or 5 μM, 1 month culture
Protocol: With reference to FIGS. 23A-23D, soft agar colony formation assays were also performed. Initially, 1000 SUM159 or MCF-7 cells, 10000 MDA-MB-453 cells were seeded into the upper agar of each dish; meanwhile, vehicle control (DMSO) or lomitapide (final concentration: 1.25, 2.5 or 5 μM) were added into the upper agar of corresponding dishes. After 1 month continuous culture, the final colonies formed in the agar were fixed by methanol and stained with crystal violet. FIG. 23A includes representative soft agar images from each treatment groups. FIGS. 23B-23D include the quantitation of soft agar clone numbers (mean standard deviation, n=3). * p<0.05, compared to vehicle control (negative control) treatment group.

[3] = system: PC9, H1975, PC9GR4, H460 and A549 cells; assay: MTT assay, lung cancer cell lines; conditions: 1.25, 2.5 and 5 μM; 24, 48, 72 h
Protocol: FIGS. 27A-27E include the results of studies to determine the effect of lomitapide treatment on lung cancer cell growth of various cell lines as determined by MTT assay. Initially, 1000 PC9, H1975, PC9GR4, H460, or A549 cells were seeded into 96-well plates. After overnight culture, vehicle (DMSO) or lomitapide (final concentration: 1.25, 2.5 and 5 μM) were added into the corresponding wells. After 24 h, 48 h and 72 h incubation, the culture media were aspirated off and 50 μL of 0.5 mg/mL of MTT containing medium was added into each well. After 3h incubation, 200 μl of DMSO were added into each well. The OD value of each well was read under the wavelength of 570 nm. The results are presented as mean±standard deviation (n=6) * p<0.05, compared to vehicle control (negative control) treatment group.

[4] = system: PC9GR4 and A549 cells; assay: Sphere formation assay, lung cancer cells; conditions: 1.25, 2.5 or 5 μM, 10 days
Protocol: With reference to FIGS. 30A and 30B, studies were also conducted to determine the effect of lomitapide treatment on the cancer stem cell-like property of lung cancer cells. Initially, 2500 lung cancer PC9GR4 or A549 cells were seeded into […] 24-well plates; meanwhile, vehicle control (DMSO) or lomitapide (final concentration: 1.25, 2.5 or 5 μM) were added into corresponding wells. After 10-days continuous culture, the final spheres formed were imaged and counted under an inverted phase-contrast microscope. FIG. 30A includes representative sphere images from each treatment groups. FIG. 30B includes the quantitation of sphere numbers (mean±standard deviation, n=3). * p<0.05, compared to vehicle control (negative control) treatment group.

[5] = system: HCT116, HT29, DLD1, PT130 and SW480 cells; assay: MTT assay, colon cancer cell lines; conditions: 1.25, 2.5 and 5 μM; 24, 48, 72 h
Protocol: With reference to FIGS. 31A-31F, studies were conducted to determine the effect of lomitapide treatment on colon cancer cell growth as determined by the MTT assay. Initially, 1000 HCT116, HT29, DLD1, PT130, or SW480 cells were seeded into 96-well plates. After overnight culture, vehicle (DMSO) or lomitapide (final concentration: 1.25, 2.5 and 5 μM) were added into the corresponding wells. After 24 h, 48 h and 72 h incubation, the culture media were aspirated off and 50 μL of 0.5 mg/mL of MTT containing medium was added into each well. After 3h incubation, 200 μL of DMSO were added into each well. The OD value of each well was read under the wavelength of 570 nm. The results are presented as mean±standard deviation (n=6) * p<0.05, compared to vehicle control (negative control) treatment group.

lomitapide
breast cancer cell growth (MTT) [1]: significantly reduces breast cancer cell growth | breast cancer cell growth (soft agar clone numbers) [2]: significantly reduces breast cancer cell growth | lung cancer cell growth (MTT) [3]: significantly reduces lung cancer cell growth | cancer stem cell-like property (sphere numbers) [4]: significantly reduces cancer stem cell-like property | colon cancer cell growth (MTT) [5]: significantly reduces colon cancer cell growth
